Values joined by “and” are separate entries in the source; they are usually repeats but may differ in a detail not shown here. Identical values can stand only once. Like-named read-outs stand apart in the source and are kept apart here.
What was measured:
[1] = tested on: HCT-116 (colorectal carcinoma); experiment: MTS growth inhibition assay, HCT-116; type: cell-based, human
Method: In Table 1, the various compounds listed were tested for induction of death in various malignant human cell lines and were compared to the commercial HAT inhibitor garcinol (0.2-500 μM). Specifically, Table 1 describes the summary of the growth inhibitory effect (in μM) of nine novel bisamidoximes on six malignant cell lines, as measured by MTS assay. MTS assay is a colorimetric based cytotoxicity assay that determines the number of viable cells. The numbers in the table represent Growth Inhibition GI50 (±standard deviation), which is the concentration of the drug where 50% of the cells are killed. Garcinol, a known HAT inhibitor, was used as a positive control. The cell lines used were: HCT-116 (colorectal carcinoma), DU-145 (prostate carcinoma), SK-OV-3 (ovarian adenocarcinoma), HLF-a (lung epidermoid carcinoma), MCF-7 & MDA-MB-231 (breast adenocarcinoma) and NHDF (normal human dermal fibroblasts). The cells were treated with compounds JJMB 1-9 for 48 hrs (MCF-7 for 72 hrs) at various concentrations ranging from 0.2 μM to 500 μM. One-way ANOVA was performed to assess the differences between the groups. Differences in means between control and treatment groups were analyzed by post-hoc Dunnett's test, p<0.05. Data is reported as the mean ±SD, n =3. […] The compounds tested (JJMB5, JJMB6, JJMB7, and JJMB9) could efficiently kill several malignant cell-lines in concentration range of micromolars. (See Table 1). […] From these tests it is clear that the compounds affected several cells lines of the three major types of cancers: breast, lung, and colon. […]
(§1) Combination studies of bisamidoximes and cisplatin were performed on human breast cancer cell line MCF-7, human colon cancer cell line HCT-116, and murine mammary malignant cell lines measured by MTS assay. The cells were treated with novel bisamidoximes JJMB 5, 7, and 9, for 48 hours (72 hours for MCF-7), individually or in combination with cisplatin. Growth Inhibition (GI50) was measured. *—Indicates a significant difference when the drugs were used in combination with cisplatin compared to when the drugs were used individually as determined by one-way ANOVA, p≤0.05.

[2] = tested on: MCF-7 (breast adenocarcinoma); experiment: MTS growth inhibition assay, MCF-7; type: cell-based, human
Method: (§2) In Table 1, the various compounds listed were tested for induction of death in various malignant human cell lines and were compared to the commercial HAT inhibitor garcinol (0.2-500 μM). Specifically, Table 1 describes the summary of the growth inhibitory effect (in μM) of nine novel bisamidoximes on six malignant cell lines, as measured by MTS assay. MTS assay is a colorimetric based cytotoxicity assay that determines the number of viable cells. The numbers in the table represent Growth Inhibition GI50 (±standard deviation), which is the concentration of the drug where 50% of the cells are killed. Garcinol, a known HAT inhibitor, was used as a positive control. The cell lines used were: HCT-116 (colorectal carcinoma), DU-145 (prostate carcinoma), SK-OV-3 (ovarian adenocarcinoma), HLF-a (lung epidermoid carcinoma), MCF-7 & MDA-MB-231 (breast adenocarcinoma) and NHDF (normal human dermal fibroblasts). The cells were treated with compounds JJMB 1-9 for 48 hrs (MCF-7 for 72 hrs) at various concentrations ranging from 0.2 μM to 500 μM. One-way ANOVA was performed to assess the differences between the groups. Differences in means between control and treatment groups were analyzed by post-hoc Dunnett's test, p<0.05. Data is reported as the mean ±SD, n =3. […] The compounds tested (JJMB5, JJMB6, JJMB7, and JJMB9) could efficiently kill several malignant cell-lines in concentration range of micromolars. (See Table 1). […] From these tests it is clear that the compounds affected several cells lines of the three major types of cancers: breast, lung, and colon.
Combination studies performed on human breast cancer cell line MCF-7 and human colon cancer cell line HCT 116 were measured by MTS assay. The cells were treated with novel bisamidoximes JJMB 5, 7, and 9, for 48 hours (72 hours for MCF-7), individually or in combination. Growth Inhibition (GI50) was measured. *—Indicates a significant difference when the drugs were used in combination compared to when the drugs were used individually as determined by one-way ANOVA, p≤0.05.
as §1

[3] = tested on: HLF-a (lung epidermoid carcinoma); experiment: MTS growth inhibition assay, HLF-a; type: cell-based; conditions: Homo sapiens, 48 hrs, 0.2-500 μM, mean ±SD n=3, read-out: Growth Inhibition GI50 (±standard deviation), Lung (HLF-A)
Method: as §2

[4] = tested on: MDA-MB-231 (breast adenocarcinoma); experiment: MTS growth inhibition assay, MDA-MB-231; type: cell-based; conditions: Homo sapiens, 48 hrs, 0.2-500 μM, mean ±SD n=3, read-out: Growth Inhibition GI50 (±standard deviation), Breast (MDA-MB-231)
Method: as §2

[5] = tested on: DU-145 (prostate carcinoma); experiment: MTS growth inhibition assay, DU-145; type: cell-based; conditions: Homo sapiens, 48 hrs, 0.2-500 μM, mean ±SD n=3, read-out: Growth Inhibition GI50 (±standard deviation), Prostate (DU-145)
Method: as §2

[6] = tested on: SK-OV-3 (ovarian adenocarcinoma); experiment: MTS growth inhibition assay, SK-OV-3; type: cell-based; conditions: Homo sapiens, 48 hrs, 0.2-500 μM, mean ±SD n=3, read-out: Growth Inhibition GI50 (±standard deviation), Ovarian (SKOV-3)
Method: as §2

[7] = MTS growth inhibition assay, NHDF; type: cell-based; conditions: NHDF (normal human dermal fibroblasts), 0.2-500 μM, read-out: Growth Inhibition GI50 (±standard deviation), Normal (NHDF)
Method: as §2

[8] = tested on: murine mammary carcinoma cells 4T1; experiment: Growth inhibition of murine mammary cancer cell line 4T1; type: cell-based; conditions: Mus musculus; 4T1 cells, single drugs; read-out: growth inhibition 50% (GI50) on 4T1 cells
[9] = tested on: EpH4 cells; experiment: Sensitivity of EpH4 cells to bisamidoximes; type: cell-based; conditions: in vitro cell culture
Method: The efficacy of killing malignant cells in mice and slowing down the tumors or eradicating them can be indicative to these compounds' efficacy in humans. To check if the bisamidoximes are potent in mice, breast cancer cells were identified that could be implanted in female mice mammary fat pads. The identified cells were tested to see if they are sensitive to bisamidoximes in vitro (in tube/cell culture).
(§3) At the next stage, we needed to determine whether the mice would tolerate the drugs, or in other words, what would be the maximum tolerated dose (MTD) of each of the bisamidoximes. The three bisamidoximes JJMB5, JJMB7, and JJMB9, as well as a control group of only the vehicle (the solvent used to dissolve the drugs) were injected intraperitoneally (IP) to mice. The protocol included injection of the desired concentration of bisamidoxime over 5 consecutive days, two days of break, and another cycle of 5 successive days of injections.

[10] = Maximum tolerated dose in mice, IP; conditions: mouse, in vivo, BALB/c strain, 5 consecutive days, two days break, another 5 days
Method: as §3

[11] = tested on: TSA-induced hyperacetylation; experiment: Reversion of HDAC-inhibitor (TSA)-induced hyperacetylation; type: cell-based, human; conditions: HCT-116, listed as JJM6
Method: To further understand the mechanism of action of the four active compounds (JJMB5, JJMB6, JJMB7, and JJMB9), we performed several experiments that are summarized in Table 2. All the assays were performed on HCT-116 (a colorectal carcinoma), since all of the four specific potent drugs could induce death of these cells. […] Another HAT, GCN5, was not inhibited by any of the compounds. JJMB5, JJM6 and JJMB9 could reverse the activity of an HDAC inhibitor (TSA); thus the hyperacetylation induced by TSA could be reversed by these compounds.
This is another indication that the three compounds, JJMB5, JJMB6, and JJMB9 are HAT inhibitors.

[12] = tested on: 4T1 breast carcinoma cells implanted in mammary fat pad; experiment: 4T1 mammary carcinoma tumor volume in BALB/c mice; type: in vivo, mouse; conditions: 4T1 in mammary fat pad, two 5-day cycles
Method: The bisamidoxime JJMB7 was studied to see if the compound can lower the rate of tumor growth and the number and size of metastases in mice. […] FIG. 2 depicts a graph of mammary tumor volumes in JJMB7 treated and untreated control BALB/c mice. In the experiment, six-week-old BALB/c mice were implanted with 10,000 4T1 breast carcinoma cells in the mammary fat pad (MFP). […] JJMB7 was administered for five consecutive days, followed by a two day break, and another five consecutive days of injections. Mice were weighed every day and observed for signs of pain and discomfort. Tumors were visible 7 days after implantation, and tumor dimensions were measured, and volumes were calculated until day-24, when mice were euthanized. A One-Way Repeated Measures ANOVA was performed to determine a statistical significance (p≤0.05).
The murine mammary carcinoma 4T1 cells were implanted in the mammary fat pad of BALB/c female mice (10,000 cells per mice) and a day later we started a protocol of two 5-day cycles (with 2 days break) of chemotherapy delivered IP. The amidoximes were delivered at their MTD level—JJMB5 with 0.26 mg/kg, and JJMB9 with 0.78 mg/kg. One-Way Repeated-Measure ANNOVA was performed to show the significance (p≤0.05, n=10).

[13] = Mouse Liver Microsomes stability; type: in vitro ADME; conditions: Mouse Liver Microsomes (FIG. 5); read-out: t1/2 in Mouse Liver Microsomes
[14] = 48 hours, individually or in combination with cisplatin, read-out: Growth Inhibition (GI50), HCT-116, cisplatin combination study
[15] = Homo sapiens, HCT-116, 48 hrs, 0.2-500 μM, mean ±SD n=3, * = highly purified, more potent batches, read-out: Growth Inhibition GI50 (±standard deviation), Colon (HCT-116)
[16] = Homo sapiens, MCF7, 72 hours, 0.2-500 μM, mean ±SD n=3, * = highly purified, more potent batches, read-out: Growth Inhibition GI50 (±standard deviation), Breast (MCF-7), 72 hours
[17] = Homo sapiens, MCF7, 72 hours, individually or in combination with cisplatin, read-out: Growth Inhibition (GI50), MCF-7, cisplatin combination study
[18] = Homo sapiens, MCF7, 72 hours, individually or in combination, read-out: Growth Inhibition (GI50), MCF-7, bisamidoxime combination study

N.N.[Cl][Pt][Cl] [Cisplatin, cisplatin, reference compound]
GI50 [1, 14]: 68.6 µM and 73 µM and 66.3 µM
GI50 ([2]; 72 hours, individually or in combination with cisplatin, read-out: Growth Inhibition (GI50), MCF-7, cisplatin combination study): 40.8 µM and 48.5 µM

C=C(C)[C@@H](CC=C(C)C)C[C@@]12C[C@@H](CC=C(C)C)C(C)(C)[C@@](CC=C(C)C)(C(=O)C(C(=O)c3ccc(O)c(O)c3)=C1O)C2=O [Garcinol, garcinol, reference compound]
GI50 [3]: 27 ± 4 µM
GI50 [1, 15]: 39 ± 8 µM
GI50 [4]: 44 ± 4 µM
GI50 [5]: 55 ± 7 µM
GI50 [2, 16]: 55 ± 7 µM
GI50 [6]: 43 ± 5 µM
GI50 at 48 h [7]: > 500 µM

Cc1ccc(/C(=N/O)NCCCN/C(=N\O)c2ccc(C)cc2)cc1 [JJMB5]
GI50 [3]: 335 ± 4 µM
GI50 [1, 14]: 19.3 ± 2.4 µM
GI50 [1, 15]: 8.5 µM
GI50 [4]: 125 ± 4 µM
GI50 [5]: > 500 µM
GI50 [8]: 6.3 ± 2.3 µM
sensitivity of EpH4 cells to bisamidoximes [9]: highly sensitive
GI50 [2, 16]: 33.2 µM
GI50 [2, 17]: 33.2 ± 6 µM
GI50 [2, 18]: 28.2 ± 7.1 µM
GI50 [6]: > 500 µM
MTD [10]: 0.26 mg/kg
GI50 at 48 h [7]: > 500 µM

Cc1ccc(/C(=N/O)NCCCCN/C(=N\O)c2ccc(C)cc2)cc1 [JJMB6]
GI50 [3]: > 500 µM
GI50 [1, 15]: 17 ± 4 µM
GI50 [4]: > 500 µM
GI50 [5]: > 500 µM
GI50 [2, 16]: > 500 µM
Reversion of HDAC-inhibitor-induced hyperacetylation [11]: could reverse
GI50 [6]: > 500 µM
GI50 at 48 h [7]: > 500 µM

Cc1ccc(/C(=N/O)NCCN/C(=N\O)c2ccc(C)cc2)cc1 [JJMB7]
GI50 [3]: 275 ± 3 µM
GI50 [1, 14]: 16.2 ± 2 µM
GI50 [1, 15]: 6.2 µM
GI50 [4]: 85 ± 3 µM
mammary carcinoma tumor volume (FIG. 2) ([12]; BALB/c mice, 1.56 mg/kg IP, until day-24): significantly reduce
GI50 [5]: > 500 µM
GI50 [8]: 14.7 ± 6.3 µM
sensitivity of EpH4 cells to bisamidoximes [9]: highly sensitive
GI50 [2, 16]: > 500 µM
GI50 [6]: > 500 µM
MTD [10]: 1.56 mg/kg
GI50 at 48 h [7]: > 500 µM

Cc1ccc(/C(=N/O)NCCCN(C)CCCN/C(=N\O)c2ccc(C)cc2)cc1 [JJMB9]
GI50 [3]: 40 ± 7 µM
GI50 [1, 15]: 16 µM
GI50 [4]: > 500 µM
breast cancer tumor volume (FIG. 3) ([12]; BALB/c female mice, 0.78 mg/kg IP, p≤0.05, n=10): significantly reduced
GI50 [5]: > 500 µM
GI50 [8]: 33.3 ± 2.4 µM
sensitivity of EpH4 cells to bisamidoximes [9]: highly sensitive
GI50 [2, 16]: 8.5 µM
GI50 [2, 17]: 8.5 ± 2.5 µM
GI50 [2, 18]: 5.3 ± 2.7 µM
half-life [13]: 13 min
GI50 [6]: > 500 µM
MTD [10]: 0.78 mg/kg
GI50 at 48 h [7]: > 500 µM
